Source: ChEMBL document CHEMBL1201862, “PubChem BioAssay data set” (2004)
The source made the active and inactive calls.

What was measured:
[1] = target: Oxysterols receptor LXR-beta (Homo sapiens, UniProt P55055); assay: LXR agonists, Gal4 luciferase reporter, dose response, counter-screen for ssDAF-12 agonist project, cell-based, luminescence, HEK293, S. stercoralis campaign (AID 720737); type: functional; details: read-out: IC50 (the source's name)
[2] = Luminescence-based cell-based high throughput dose response assay to identify activators of the DAF-12 from the parasite S. stercoralis (ssDAF-12).; type: functional
[3] = target: Ephrin type-A receptor 4 (Mus musculus, UniProt Q03137); assay: EphA4 ligand-binding antagonists – biochemical, colorimetric, mouse EphA4, primary screen (AID 689); type: functional
Ephrin type-A receptor 4, sequence (Q03137 whole entry): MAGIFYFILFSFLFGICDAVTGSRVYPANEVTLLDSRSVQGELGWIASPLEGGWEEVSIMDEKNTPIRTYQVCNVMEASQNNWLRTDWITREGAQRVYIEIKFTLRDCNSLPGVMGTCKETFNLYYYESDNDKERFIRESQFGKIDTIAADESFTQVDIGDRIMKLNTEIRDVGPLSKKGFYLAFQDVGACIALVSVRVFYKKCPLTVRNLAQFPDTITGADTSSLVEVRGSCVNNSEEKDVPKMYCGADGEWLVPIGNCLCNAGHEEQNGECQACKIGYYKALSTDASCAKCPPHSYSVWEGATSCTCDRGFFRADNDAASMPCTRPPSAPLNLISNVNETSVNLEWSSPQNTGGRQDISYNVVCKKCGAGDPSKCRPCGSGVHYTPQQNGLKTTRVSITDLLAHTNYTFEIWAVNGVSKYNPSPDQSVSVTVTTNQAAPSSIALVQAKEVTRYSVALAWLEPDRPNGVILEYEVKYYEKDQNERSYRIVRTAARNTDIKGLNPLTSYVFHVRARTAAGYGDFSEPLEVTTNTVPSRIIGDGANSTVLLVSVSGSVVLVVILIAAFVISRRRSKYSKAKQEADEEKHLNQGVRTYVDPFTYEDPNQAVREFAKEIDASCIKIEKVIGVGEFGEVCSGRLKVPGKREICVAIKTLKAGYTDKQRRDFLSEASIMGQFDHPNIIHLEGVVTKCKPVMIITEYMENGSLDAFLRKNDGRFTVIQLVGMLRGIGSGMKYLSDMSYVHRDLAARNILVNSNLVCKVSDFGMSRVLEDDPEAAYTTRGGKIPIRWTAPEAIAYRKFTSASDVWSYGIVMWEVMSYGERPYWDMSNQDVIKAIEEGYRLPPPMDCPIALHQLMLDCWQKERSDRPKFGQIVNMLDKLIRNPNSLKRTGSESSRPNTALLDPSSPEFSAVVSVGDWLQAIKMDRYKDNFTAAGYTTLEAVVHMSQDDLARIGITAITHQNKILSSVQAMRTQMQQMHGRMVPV

[4] = PAX8-dependent cell viability loss – plate reader, dry powder, dose response (AID 743049); type: functional, cell-based
[5] = OVCAR-3 cell viability loss – plate reader, dry powder samples, PAX8 inhibitor project, dose response (AID 743044); type: functional, cell-based
[6] = PAX5 cellular inhibition readout – cell-based, plate reader, dry powder samples, selectivity assay for PAX8 inhibitor project, dose response (AID 743047); type: functional;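 note: HEK293 cells carrying a Pax5 driven CD19 promoter luciferase reporter; potency of inhibitors that lower reporter luminescence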
[7] = OV-90 cell viability loss – plate reader, dry powder, SA8, PAX8 inhibitor project, dose response (AID 743149); type: functional, cell-based
[8] = inhibitors acting on PAX2 in cells – cell-based, plate reader, dry powder samples, selectivity assay for PAX8 inhibitor project, dose response (AID 743048); type: functional;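 note: HEK293 cells carrying a WT1 promoter luciferase reporter driven by expressed Pax2; potency is for inhibition of Pax2 driven reporter signal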
[9] = growth inhibition of PfATP4-mutant resistant parasites – NITD609-resistant line, SYBR Green, dry powder, dose response (AID 1159571); type: functional, cell-based;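 note: parasites synchronized at ring stage by sorbitol before testing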
[10] = toxicity to human hepatoma HepG2 cells – cell-based, cherry-picked samples, cytotoxicity control, dose response (AID 1159577); type: functional
[11] = toxicity to human HepG2 hepatoma cells – cell-based, plate reader, dry powder samples, cytotoxicity control, dose response (AID 1159569); type: functional;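 note: inhibitor potency with signal falling toward the positive control level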
[12] = Dd2 malaria parasite growth inhibition potency – SYBR Green, dry powder samples, dose response (AID 1159566); type: functional, cell-based;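 note: potency for growth inhibition with lower SYBR green DNA signal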
[13] = P. falciparum Dd2 growth inhibitors, dose response, SYBR Green, cherry-picked samples (AID 1159567); type: functional, cell-based
[14] = growth inhibition of yeast DHODH-expressing 3D7 parasites – SYBR Green, dry powder samples, dose response (AID 1159570); type: functional, cell-based;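 note: parasite growth measured after 72 hours of compound exposure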
[15] = rise of 2N DNA cells, HeLa – IC50, dose response (AID 1117349); type: functional, cell-based
[16] = rise of 4N DNA cells, HeLa – IC50, dose response (AID 1117351); type: functional, cell-based
[17] = target: Sphingosine 1-phosphate receptor 2 (Homo sapiens, UniProt O95136); assay: Dose Response Cell Based Assay for Antagonists of the S1P2 Receptor. [Related pubchem assays: 856, 736 ]; type: functional
Sphingosine 1-phosphate receptor 2, sequence (O95136 whole entry): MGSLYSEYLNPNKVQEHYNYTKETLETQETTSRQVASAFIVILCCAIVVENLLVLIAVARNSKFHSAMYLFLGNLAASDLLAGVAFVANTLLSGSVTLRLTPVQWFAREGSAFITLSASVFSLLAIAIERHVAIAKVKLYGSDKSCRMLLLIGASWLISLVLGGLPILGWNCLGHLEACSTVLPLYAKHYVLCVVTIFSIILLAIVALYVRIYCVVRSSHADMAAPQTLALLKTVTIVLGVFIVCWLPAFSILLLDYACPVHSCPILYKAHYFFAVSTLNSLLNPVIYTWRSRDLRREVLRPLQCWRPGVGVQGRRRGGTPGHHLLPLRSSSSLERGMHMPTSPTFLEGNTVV

[18] = reduced cellular PGC1a acetyl-lysine signal – cell-based, cherry-picked samples, dose response (AID 720514); type: functional;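 note: potency may reflect raised or lowered acetylation signal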
[19] = NIH3T3 cell viability loss – ATP luminescence, mouse fibroblasts, counter-screen, dose response (AID 2010); type: functional, cell-based;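 note: cells exposed to compound for about 90 hours before reading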
[20] = test system: Streptococcus sp. 'group A'; assay: Streptococcus pyogenes SK(-)GAS viability under kanamycin – luminescence, BacTiterGlo, confirmation, counter-screen for streptokinase expression inhibitor project, dose response (AID 1900); type: functional, organism-based
[21] = viability loss of HPDE-C7K cells – cell-based, fluorescence, HTS, primary screen (AID 431); type: functional; details: Homo sapiens
[22] = target: T1, Streptokinase A (Streptococcus pyogenes serotype M1, UniProt P10520); assay: viability-normalized secreted streptokinase activity reduction – plasminogen activation absorbance, OD405, dose response (AID 1914); type: functional, Streptococcus pyogenes M1 GAS;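 note: secreted streptokinase activity via plasminogen activation per viability signal from cell pellet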
T1 sequence (P10520 whole entry): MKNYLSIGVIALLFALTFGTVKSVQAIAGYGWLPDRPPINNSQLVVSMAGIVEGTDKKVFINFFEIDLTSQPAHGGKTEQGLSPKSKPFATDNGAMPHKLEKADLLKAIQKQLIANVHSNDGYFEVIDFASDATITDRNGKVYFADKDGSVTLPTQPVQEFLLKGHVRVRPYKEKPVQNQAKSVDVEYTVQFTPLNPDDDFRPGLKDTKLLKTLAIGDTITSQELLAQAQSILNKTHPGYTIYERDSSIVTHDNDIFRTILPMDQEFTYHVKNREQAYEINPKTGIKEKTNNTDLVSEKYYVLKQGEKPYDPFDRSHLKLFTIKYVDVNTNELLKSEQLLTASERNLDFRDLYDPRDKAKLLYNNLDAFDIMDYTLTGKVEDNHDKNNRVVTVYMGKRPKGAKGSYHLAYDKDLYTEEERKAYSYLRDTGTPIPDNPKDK

[23] = Trypanosoma cruzi growth suppression in host cells – NIH3T3 host cells, beta-gal luminescence, confirmation (AID 2044); type: functional, cell-based;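 note: intracellular parasites grown in NIH/3T3 mouse fibroblasts as host cells; luminescent beta-galactosidase reporter signal from transgenic T. cruzi replicating inside host cells; inhibitors lower the luminescence signal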
[24] = HPDE-C7 pancreatic duct cell viability loss – fluorescence, HTS (AID 430); type: functional, cell-based; details: Homo sapiens
[25] = test system: Streptococcus; assay: GAS UMAA2166 growth inhibition – luminescence, BacTiterGlo, counter-screen for streptokinase expression inhibitor project, dose response (AID 1915); type: functional, organism-based;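 note: potency for reduction of bacterial viability or growth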
[26] = cells
[27] = target: Dual specificity tyrosine-phosphorylation-regulated kinase 1A (Rattus norvegicus, UniProt Q63470); type: biochemical, Homo sapiens
[28] = M. tuberculosis H37Rv growth inhibitors, H37Rv strain (AID 1626); type: functional

Oxysterols receptor LXR-beta, sequence (P55055 whole entry, the tested form may be a part): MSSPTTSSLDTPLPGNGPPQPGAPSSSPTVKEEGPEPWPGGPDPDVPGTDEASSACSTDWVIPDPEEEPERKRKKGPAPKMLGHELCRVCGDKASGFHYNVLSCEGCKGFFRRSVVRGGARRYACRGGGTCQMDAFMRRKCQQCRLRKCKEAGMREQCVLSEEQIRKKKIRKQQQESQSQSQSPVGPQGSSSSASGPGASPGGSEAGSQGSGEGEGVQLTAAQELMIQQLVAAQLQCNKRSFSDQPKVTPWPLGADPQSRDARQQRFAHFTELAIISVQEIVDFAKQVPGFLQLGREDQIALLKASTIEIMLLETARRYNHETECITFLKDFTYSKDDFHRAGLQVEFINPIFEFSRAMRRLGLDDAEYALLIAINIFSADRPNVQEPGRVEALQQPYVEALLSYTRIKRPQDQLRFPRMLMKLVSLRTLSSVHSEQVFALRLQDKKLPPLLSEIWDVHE

In the case of N#C/C(=C\c1ccc[nH]1)C(=O)Nc1ccccc1F, the EC50 [1] is reported as > 67.5 µM (inactive) and the IC50 [2] is reported as > 67.5 µM (inactive).
In the case of COc1ccc(/C=c2\sc3nc(-c4ccccc4)c(-c4ccccc4)n3c2=O)cc1OC, the IC50 [3] is reported as 8.12 µM (active).
With COC(=O)[C@@]1(CCS(=O)(=O)c2ccccc2)N=C(c2ccc(OCCCO)cc2)O[C@H]1c1ccccc1 the AC50 [4] was > 100 µM (inactive), the AC50 [5] was 95 µM (active) and the AC50 [6] was 77.3 µM (active). For the same compound, the AC50 [7] was 14.1 µM (active) and the AC50 [8] was 58.6 µM (active).
With COc1cc(CN2C[C@@H]3N[C@H](C2)[C@@H]3c2ccc(-c3ccncc3)cc2)cc(OC)c1 the AC50 [9] was 1.9 µM (active), the AC50 [10] was > 39 µM (inactive) and the AC50 [11] was 18.7 µM (active). For the same compound, the AC50 [12] was 1.92 µM (active), the AC50 [13] was 2.11 µM (active) and the AC50 [14] was 2.53 µM (active).
With COC(=O)[C@H]1[C@H]2C[C@@H]3c4[nH]c5cc(OC)ccc5c4CCN3C[C@H]2C[C@@H](OC(=O)/C=C/c2ccc(O)c(OC)c2)[C@@H]1OC [RESCIMETOL] the IC50 [15] was > 10 µM (inactive) and the IC50 [16] was > 10 µM (inactive).
In the case of Cc1ccc2[nH]c3c(N4CCCCCC4)ncnc3c2c1, the IC50 [17] is reported as 3.44 µM (active).
For COc1ccc(F)cc1CN1CCN(CC(=O)N2CCc3ccccc32)CC1, the AC50 [18] was 24.9 µM (active).
For N#C/C(=C/c1ccc(N2CCCCCC2)o1)c1ccc(F)cc1, the EC50 [19] was 9.44 µM (active), the EC50 [20] was 19.2 µM (active) and the EC50 [21] was 14.1 µM (active). For the same compound, the IC50 [17] was 11.5 µM (not active), the EC50 [22] was 16 µM (active) and the EC50 [23] was 3.49 µM (active). The EC50 [24] was 13.6 µM (active) and the EC50 [25] was > 150 µM (not active).
In the case of CN1CCc2nc3sc(C#N)c(N)c3c(-c3cccs3)c2C1, the EC50 [26] is reported as 0.06 µM (active), the EC50 [19] is reported as > 60 µM (not active) and the AC50 [27] is reported as 3.27 µM (active). For the same compound, the EC50 [23] was < 0.1 µM (active).
With O=C(CCSc1ccc(Cl)cc1)c1cccs1 the IC50 [28] was > 100 µM (active).
